Experimental data as given in patent publication US9115093B2, “Substituted bicyclic dihydropyrimidinones and their use as inhibitors of neutrophil elastase activity” (Boehringer Ingelheim International GmbH, priority 2013, dated 2015).

molecular target: T1, neutrophil elastase (Homo sapiens, UniProt P08246); experiment: Human Neutrophil Elastase Assay; format: biochemical; design: purchased Calbiochem 324681; settings: substrate MeOSuc-Ala-Ala-Pro-Val-AMC, pH 7.5, room temperature
T1 sequence (P08246 30-247 limits assumed): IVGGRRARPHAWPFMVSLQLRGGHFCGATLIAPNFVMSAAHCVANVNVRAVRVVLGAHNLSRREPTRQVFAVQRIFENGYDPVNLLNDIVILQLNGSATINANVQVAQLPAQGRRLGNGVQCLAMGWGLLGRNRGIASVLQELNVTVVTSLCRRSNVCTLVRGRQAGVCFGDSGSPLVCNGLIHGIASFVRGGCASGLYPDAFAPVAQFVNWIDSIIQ
Method in brief: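 Readout: AMC fluorescence (ex 380, em 460 nm) after 60 min room-temperature reaction with 250 nM MeOSuc-AAPV-AMC, following 15 min compound–enzyme preincubation. Buffer: Tris/NaCl pH 7.5, 0.01% BSA.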

| SMILES | IC50 [nM] |
| --- | --- |
| COCCNC(=O)CN1C(=O)N(c2cccc(C(F)(F)F)c2)C2=C(C(=O)CCC2)C1c1ccc(C#N)cc1 (stereo not drawn) [Example 36.5] | 13.5 |
| COCCOC(=O)N1C(=O)N(c2cccc(C(F)(F)F)c2)C2=C(C(=O)CCC2)C1c1ccc(C#N)cc1 (stereo not drawn) [Example 41, 2-Methoxyethyl 4-(4-Cyanophenyl)-2,5-dioxo-1-(3-(trifluoromethyl)phenyl)-1,2,5,6,7,8-hexahydroquinazoline-3(4H)-carboxylate] | 9.1 |
| CS(=O)(=O)N1C(=O)N(c2cccc(C(F)(F)F)c2)C2=C(C(=O)CCC2)C1c1ccc(C#N)cc1 (stereo not drawn) [Example 43, 4-(3-(Methylsulfonyl)-2,5-dioxo-1-(3-(trifluoromethyl)phenyl)-1,2,3,4,5,6,7,8-octahydroquinazolin-4-yl)benzonitrile] | 4 |
| N#Cc1ccc(C2C3=C(CCCC3=O)N(c3cccc(C(F)(F)F)c3)C(=O)N2S(=O)(=O)c2csc(C(=O)O)c2)cc1 (stereo not drawn) [Example 46, 4-(4-(4-Cyanophenyl)-2,5-dioxo-1-(3-(trifluoromethyl)phenyl)-1,2,5,6,7,8-hexahydroquinazolin-3(4H)-ylsulfonyl)thiophene-2-carboxylic acid] | 21.5 |
| CN(C)C(=O)CN1C(=O)N(c2cccc(C(F)(F)F)c2)C2=C(C(=O)CCC2)C1c1ccc(C#N)cc1S(C)(=O)=O (stereo not drawn) [Example 62, 2-(4-(4-Cyano-2-(methylsulfonyl)phenyl)-2,5-dioxo-1-(3-(trifluoromethyl)phenyl)-1,2,5,6,7,8-hexahydroquinazolin-3(4H)-yl)-N,N-dimethylacetamide] | 1.2 |
| N#Cc1ccc(C2C3=C(CCCC3=O)N(c3cccc(C(F)(F)F)c3)C(=O)N2C(=O)NC2CC[S+]([O-])CC2)cc1 (stereo not drawn) [Example 71, 4-(4-Cyanophenyl)-2,5-dioxo-N-(1-oxo-hexahydro-1λ^4-thiopyran-4-yl)-1-(3-(trifluoromethyl)phenyl)-1,2,5,6,7,8-hexahydroquinazoline-3(4H)-carboxamide] | < 1 |
| CS(=O)(=O)CCN1C(=O)N(c2cccc(C(F)(F)F)c2)C2=C(C(=O)CCC2)C1c1ccc(C#N)cc1 (stereo not drawn) [Example 30, 4-(3-(2-(Methylsulfonyl)ethyl)-2,5-dioxo-1-(3-(trifluoromethyl)phenyl)-1,2,3,4,5,6,7,8-octahydroquinazolin-4-yl)benzonitrile] | 4 |
| N#Cc1ccc(C2C3=C(CCCC3=O)N(c3cccc(C(F)(F)F)c3)C(=O)N2CC(=O)O)cc1 (stereo not drawn) [Example 32, 2-(4-(4-Cyanophenyl)-2,5-dioxo-1-(3-(trifluoromethyl)phenyl)-1,2,5,6,7,8-hexahydroquinazolin-3(4H)-yl)acetic acid] | 12 |
| CC(=O)N1CCN(C(=O)CN2C(=O)N(c3cccc(C(F)(F)F)c3)C3=C(C(=O)CCC3)C2c2ccc(C#N)cc2)CC1 (stereo not drawn) [Example 36.60] | 3.7 |
| Cn1cc(CN2C(=O)N(c3cccc(C(F)(F)F)c3)C3=C(C(=O)CCC3)C2c2ccc(C#N)cc2)cn1 (stereo not drawn) [Example 24.2] | 9.8 |
| CN(CCN1CCCC1=O)C(=O)CN1C(=O)N(c2cccc(C(F)(F)F)c2)C2=C(C(=O)CCC2)C1c1ccc(C#N)cc1 (stereo not drawn) [Example 36.67] | 4.2 |
| N#Cc1ccc(C2C3=C(CCCC3=O)N(c3cccc(C(F)(F)F)c3)C(=O)N2CC(=O)N2CCC3(CC2)CNC(=O)O3)cc1 (stereo not drawn) [Example 36.74] | 2.1 |
| N#Cc1ccc(C2C3=C(CCCC3=O)N(c3cccc(C(F)(F)F)c3)C(=O)N2CC(=O)N2CCn3nccc3C2)cc1 (stereo not drawn) [Example 36.51] | 1.7 |
| CS(=O)(=O)c1cc(C#N)ccc1[C@@H]1C2=C(CCCC2=O)N(c2cccc(C(F)(F)F)c2)C(=O)N1C(=O)NC1CCOC1 (stereo partly drawn) [Example 75.10] | < 1 |
| N#Cc1ccc(C2NC(=O)N(c3cccc(C(F)(F)F)c3)C3=C2C(=O)CCC3)c(F)c1 (stereo not drawn) [Example 52, 4-(2,5-Dioxo-1-(3-(trifluoromethyl)phenyl)-1,2,3,4,5,6,7,8-octahydroquinazolin-4-yl)-3-fluorobenzonitrile] | 26.7 |
| N#Cc1ccc(C2C3=C(CCCC3=O)N(c3cccc(C(F)(F)F)c3)C(=O)N2CC(=O)NCC2CCCOC2)cc1 (stereo not drawn) [Example 36.42] | 9.9 |

| SMILES | IC50 [nM] |
| --- | --- |
| CS(=O)(=O)c1cc(C#N)ccc1[C@@H]1C2=C(CCCC2=O)N(c2cccc(C(F)(F)F)c2)C(=O)N1C(=O)NCC#N [Example 75.1] | < 1 |
| CNC(=O)CN1C(=O)N(c2cccc(C(F)(F)F)c2)C2=C(C(=O)CCC2)C1c1ccc(C#N)cc1 (stereo not drawn) [Example 36.1] | 6.4 |
| N#Cc1ccc(C2C3=C(CCCC3=O)N(c3cccc(C(F)(F)F)c3)C(=O)N2CC(=O)N2CCc3cnccc3C2)cc1 (stereo not drawn) [Example 36.64] | 5.6 |
| N#Cc1ccc(C2C3=C(CCCC3=O)N(c3cccc(C(F)(F)F)c3)C(=O)N2CC(=O)N2CCC3(CC2)CC3)cc1 (stereo not drawn) [Example 36.34] | 10.7 |
| N#Cc1ccc(C2C3=C(CCCC3=O)N(c3cccc(C(F)(F)F)c3)C(=O)N2CCCN2CCCC2)cc1 (stereo not drawn) [Example 23, 4-(1-(3-(Trifluoromethyl)phenyl)-2,5-dioxo-3-(3-(pyrrolidin-1-yl)propyl)-1,2,3,4,5,6,7,8-octahydroquinazolin-4-yl)benzonitrile] | 10.7 |
| N#Cc1ccc(C2C3=C(CCCC3=O)N(c3cccc(C(F)(F)F)c3)C(=O)N2C(=O)NC2CCS(=N)(=O)CC2)cc1 (stereo not drawn) [Example 72, 4-(4-Cyanophenyl)-2,5-dioxo-N-(1-imino-1-oxo-hexahydro-1λ^6-thiopyran-4-yl)-1-(3-(trifluoromethyl)phenyl)-1,2,5,6,7,8-hexahydroquinazoline-3(4H)-carboxamide] | < 1 |
| CN(CC1CC1)C(=O)CN1C(=O)N(c2cccc(C(F)(F)F)c2)C2=C(C(=O)CCC2)C1c1ccc(C#N)cc1 (stereo not drawn) [Example 36.7] | 3.4 |
| CNC(=O)N1C(=O)N(c2cccc(C(F)(F)F)c2)C2=C(C(=O)CCC2)C1c1ccc(C#N)cc1C (stereo not drawn) [Example 73, 4-(4-Cyano-2-methylphenyl)-N-methyl-2,5-dioxo-1-(3-(trifluoromethyl)phenyl)-1,2,5,6,7,8-hexahydroquinazoline-3(4H)-carboxamide] | < 1 |
| CS(=O)(=O)c1cc(C#N)ccc1[C@@H]1C2=C(CCCC2=O)N(c2cccc(C(F)(F)F)c2)C(=O)N1C(=O)NC1(C#N)CC1 [Example 75.8] | < 1 |
| N#Cc1ccc(C2NC(=O)N(c3ccnc(C(F)(F)F)c3)C3=C2C(=O)CCC3)cc1 (stereo not drawn) [Example 14, 4-(2,5-Dioxo-1-(2-(trifluoromethyl)pyridin-4-yl)-1,2,3,4,5,6,7,8-octahydroquinazolin-4-yl)benzonitrile] | 70.3 |
| N#Cc1ccc(C2C3=C(CCCC3=O)N(c3cccc(C(F)(F)F)c3)C(=O)N2CC(=O)N2CCC(F)C2)cc1 (stereo not drawn) [Example 36.11] | 5.1 |
| CS(=O)(=O)c1cc(C#N)ccc1C1C2=C(CCCC2=O)N(c2cccc(C(F)(F)F)c2)C(=O)N1CCC1CCOCC1 (stereo not drawn) [Example 58.6] | < 1 |
| N#Cc1ccc(C2NC(=O)N(c3cccc(C(F)(F)F)c3)C3=C2C(=O)CC(c2ccc(C(F)(F)F)cc2)C3)cc1 (stereo not drawn) [Example 7, 4-(2,5-Dioxo-1-(3-(trifluoromethyl)phenyl)-7-(4-(trifluoromethyl)phenyl)-1,2,3,4,5,6,7,8-octahydroquinazolin-4-yl)benzonitrile] | 212 |
| Cn1ccc(CNC(=O)CN2C(=O)N(c3cccc(C(F)(F)F)c3)C3=C(C(=O)CCC3)C2c2ccc(C#N)cc2)n1 (stereo not drawn) [Example 36.33] | 17.1 |
| N#Cc1ccc(C2C3=C(CCCC3=O)N(c3cccc(C(F)(F)F)c3)C(=O)N2CC(=O)NCC2CCCO2)cc1 (stereo not drawn) [Example 36.24] | 10.1 |

Second part, the compound after the results:

| IC50 [nM] | SMILES |
| --- | --- |
| < 1 | N#Cc1ccc(C2C3=C(CCCC3=O)N(c3cccc(C(F)(F)F)c3)C(=O)N2C(=O)NCC(F)F)cc1 (stereo not drawn) [Example 70.6] |
| < 1 | CS(=O)(=O)CCNC(=O)N1C(=O)N(c2cccc(C(F)(F)F)c2)C2=C(C(=O)CCC2)C1c1ccc(C#N)cc1S(C)(=O)=O (stereo not drawn) [Example 47.4] |
| < 1 | N#Cc1ccc(C2C3=C(CCCC3=O)N(c3cccc(C(F)(F)F)c3)C(=O)N2C(=O)NC2COC2)cc1 (stereo not drawn) [Example 39.5] |
| 54.8 | COC1CCN(C(=O)N2C(=O)N(c3cccc(C(F)(F)F)c3)C3=C(C(=O)CCC3)C2c2ccc(C#N)cc2)C1 (stereo not drawn) [Example 39.10] |
| 15.6 | N#Cc1ccc(C2C3=C(CCCC3=O)N(c3cccc(C(F)(F)F)c3)C(=O)N2S(=O)(=O)c2ccco2)cc1 (stereo not drawn) [Example 44.4] |
| 79.1 | COC1CCN(C(=O)N2C(=O)N(c3cccc(C(F)(F)F)c3)C3=C(C(=O)CCC3)C2c2ccc(C#N)cc2)CC1 (stereo not drawn) [Example 39.18] |
| 22.3 | N#Cc1ccc(C2C3=C(CCCC3=O)N(c3cccc(C(F)(F)F)c3)C(=O)N2S(=O)(=O)c2cccnc2)cc1 (stereo not drawn) [Example 44.6] |
| 1.9 | CC(C)NC(=O)N1C(=O)N(c2ccnc(C(F)(F)F)c2)C2=C(C(=O)CCC2)C1c1ccc(C#N)cc1 (stereo not drawn) [Example 76.3] |
| 1.2 | CCNC(=O)N1C(=O)N(c2ccnc(C(F)(F)F)c2)C2=C(C(=O)CCC2)C1c1ccc(C#N)cc1 (stereo not drawn) [Example 76.2] |
| < 1 | N#Cc1ccc(C2C3=C(CCCC3=O)N(c3cccc(C(F)(F)F)c3)C(=O)N2C(=O)NC2CS(=O)(=O)C2)cc1 (stereo not drawn) [Example 70.18] |
| 34.9 | N#Cc1ccc(C2C3=C(CCCC3=O)N(c3cccc(C(F)(F)F)c3)C(=O)N2S(=O)(=O)c2ccccc2)cc1 (stereo not drawn) [Example 44.5] |
| 1.4 | CC(C)NC(=O)N1C(=O)N(c2cccc(C(F)(F)F)c2)C2=C(C(=O)CCC2)C1c1ccc(C#N)cc1 (stereo not drawn) [Example 70.4] |
| < 1 | N#Cc1ccc(C2C3=C(CCCC3=O)N(c3cccc(C(F)(F)F)c3)C(=O)N2C(=O)NCC2CCOC2)cc1 (stereo not drawn) [Example 39.9] |
| 106 | N#Cc1ccc(C2C3=C(CCCC3=O)N(c3cccc(C(F)(F)F)c3)C(=O)N2S(=O)(=O)C=Cc2ccccc2)cc1 (stereo not drawn) [Example 44.12] |
